The text below walks through data of US20240353769A1, “ELECTROPHOTOGRAPHIC PHOTORECEPTOR, COATING LIQUID FOR FORMING ELECTROPHOTOGRAPHIC PHOTORECEPTOR PROTECTIVE LAYER, COMPOUND, ELECTROPHOTOGRAPHIC PHOTORECEPTOR CARTRIDGE, AND IMAGE FORMATION DEVICE” (MITSUBISHI CHEMICAL CORPORATION, priority 2021, published 2024).

A short description of the series: Evaluation of solubility in organic solvent (visual). Type of series: physicochemical. Further details: key: A (good): The compound dissolved completely at room temperature.; B (poor): Undissolved compound was observed at room temperature. The settings on record: eight parts by mass in 100 parts by mass mixed solvent (19 mass % THF, 38 mass % TL, 43 mass % 2-PrOH), 25° C., stirred 10 minutes. Here is the method:
To 100 parts by mass of a mixed solvent of tetrahydrofuran (appropriately abbreviated to as THF below), toluene (appropriately abbreviated to as TL below) and 2-propanol (appropriately abbreviated to as 2-PrOH below) (19 mass % THF, 38 mass % TL and 43 mass % 2-PrOH, 25° C.), eight parts by mass of the compound 1 or 2 or the comparative compound 1 was added, and without heating or cooling, the mixtures were stirred with a rotor for 10 minutes. Then, the dissolution states were observed visually, and the solubility was evaluated by the following criteria.
In the case of `C=C(C)C(=O)OCC(COC(=O)C(=C)C)OC(=O)CCC(=O)Oc1cccc(C(C)C2=C/C(=C3/C=C(C(C)c4cccc(OC(=O)CCC(=O)OC(COC(=O)C(=C)C)COC(=O)C(=C)C)c4)C(=O)c4ccccc43)c3ccccc3C2=O)c1` (stereo not drawn) [Compound 2], the Solubility entry is “A”. With `C=CC(=O)OCCOC(=O)CCC(=O)Oc1cccc(C(C)C2=C/C(=C3/C=C(C(C)c4cccc(OC(=O)CCC(=O)OCCOC(=O)C=C)c4)C(=O)c4ccccc43)c3ccccc3C2=O)c1` (stereo not drawn) [Compound 1], the Solubility result was “A”. On to `CCC(C)(C)C1=C/C(=C2/C=C(C(C)(C)CC)C(=O)c3ccccc32)c2ccccc2C1=O` [Comparative Compound 1, reference compound], for which the Solubility entry is listed as “B”.
